Results as given in patent publication US12655116B2, “Substituted isophthalic acid diamides” (Bayer Aktiengesellschaft, priority 2020, dated 2026).

Assays:
DIGSA [1] = experiment: Post-emergence herbicidal action against DIGSA; assay type: in vivo, Digitaria sanguinalis
How it was run: (§1)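 A WP or EC formulation diluted in water with 0.2% wetting agent was sprayed at 600 to 800 l/ha onto one-leaf-stage plants grown in sandy loam. About 3 weeks later, action was rated visually in percent, 100% being dead plants.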

AVEFA = experiment: Pre-emergence herbicidal action against AVEFA; assay type: in vivo, Avena fatua; conditions: pre-emergence
How it was run: (§2)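 Greenhouse pots of sandy loam held seeds covered with soil, onto which the compound was applied before emergence. An aqueous suspension or emulsion of WP or EC was used at 600 to 800 l/ha with 0.2% wetting agent. Percent damage was judged visually at 3 weeks.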

PHBPU [2] = experiment: Post-emergence herbicidal action against PHBPU; assay type: in vivo, Pharbitis purpurea
How it was run: as §1

VERPE [3] = experiment: Pre-emergence herbicidal action against VERPE; assay type: in vivo, Veronica persica
How it was run: as §2

ECHCG [4] = experiment: Pre-emergence herbicidal action against ECHCG; assay type: in vivo, Echinochloa crus-galli; conditions: 80 g/ha
How it was run: as §2

PHBPU [5] = experiment: Pre-emergence herbicidal action against PHBPU; assay type: in vivo, Pharbitis purpurea
How it was run: as §2

ALOMY [6] = experiment: Post-emergence herbicidal action against ALOMY; assay type: in vivo, Alopecurus myosuroides; conditions: dosage 20 g/ha, visual assessment about 3 weeks after treatment vs untreated controls
How it was run: as §1

DIGSA [7] = experiment: Pre-emergence herbicidal action against DIGSA; assay type: in vivo, Digitaria sanguinalis
How it was run: as §2

AMARE [8] = experiment: Post-emergence herbicidal action against AMARE; assay type: in vivo, Amaranthus retroflexus; conditions: 20 g/ha, visual assessment about 3 weeks after treatment, 100% = plants have died, 0% = like control plants
How it was run: as §1

ALOMY [9] = experiment: Pre-emergence herbicidal action against ALOMY; assay type: in vivo, Alopecurus myosuroides; conditions: pre-emergence
How it was run: as §2

AMARE [10] = experiment: Pre-emergence herbicidal action against AMARE; assay type: in vivo, Amaranthus retroflexus
How it was run: as §2

MATIN [11] = experiment: Pre-emergence herbicidal action against MATIN; assay type: in vivo, Matricaria inodora
How it was run: as §2

ECHCG [12] = experiment: Post-emergence herbicidal action against ECHCG; assay type: in vivo, Echinochloa crus-galli
How it was run: as §1

VERPE [13] = experiment: Post-emergence herbicidal action against VERPE; assay type: in vivo, Veronica persica; conditions: 20 g/ha
How it was run: as §1

POLCO = experiment: Pre-emergence herbicidal action against POLCO; assay type: in vivo, Polygonum convolvulus; conditions: dosage 80 g/ha
How it was run: as §2

MATIN [14] = experiment: Post-emergence herbicidal action against MATIN; assay type: in vivo, Matricaria inodora
How it was run: as §1

ABUTH [15] = experiment: Pre-emergence herbicidal action against ABUTH; assay type: in vivo, Abutilon theophrasti
How it was run: as §2

SETVI [16] = experiment: Post-emergence herbicidal action against SETVI; assay type: in vivo, Setaria viridis
How it was run: as §1

LOLRI = experiment: Pre-emergence herbicidal action against LOLRI; assay type: in vivo, Lolium rigidum; conditions: 80 g/ha
How it was run: as §2

VIOTR = experiment: Pre-emergence herbicidal action against VIOTR; assay type: in vivo, Viola tricolor
How it was run: as §2

SETVI [17] = experiment: Pre-emergence herbicidal action against SETVI; assay type: in vivo, Setaria viridis; conditions: Setaria viridis, 504 h
How it was run: as §2

ABUTH [18] = experiment: Post-emergence herbicidal action against ABUTH; assay type: in vivo, Abutilon theophrasti; conditions: Abutilon theophrasti, 504 h, dosage 20 g/ha, visual assessment about 3 weeks after treatment vs untreated controls
How it was run: as §1

[19] = 80 g/ha, scored visually after 3 weeks vs untreated controls (100% = plants have died, 0% = like control plants)
[20] = Tripleurospermum inodorum, 504 h, dosage 20 g/ha

Compound: Cc1c(C(=O)Nc2nnnn2C)ccc(C(F)F)c1C(=O)NC(C)C1CC1 (centres unmarked) [Example 1-339]
- Post-emergence action against DIGSA in % (DIGSA [1]; 5 g/ha): 90%
- Post-emergence action against DIGSA (DIGSA [1]; 20 g/ha): 90%
- Pre-emergence action against AVEFA in % (AVEFA; 80 g/ha): 100%
- Post-emergence action against PHBPU in % (PHBPU [2]; dosage 5 g/ha): 80%
- Post-emergence action against PHBPU in % (PHBPU [2]; dosage 20 g/ha): 90%
- Pre-emergence action against VERPE in % (VERPE [3]; dosage 20 g/ha): 100%
- Pre-emergence action against VERPE in % (VERPE [3]; dosage 80 g/ha): 100%
- Pre-emergence action against ECHCG in % (ECHCG [4]): 100%
- Pre-emergence action against PHBPU in % (PHBPU [5]; dosage 20 g/ha): 100%
- Pre-emergence action against PHBPU in % (PHBPU [5]; dosage 80 g/ha): 100%
- Post-emergence action against ALOMY in % (ALOMY [6]): 80%
- Pre-emergence action against DIGSA in % (DIGSA [7]; dosage 20 g/ha): 100%
- Pre-emergence action against DIGSA in % (DIGSA [7]; dosage 80 g/ha): 100%
- Post-emergence action at 20 g/ha against AMARE in % (AMARE [8]): 90%
- Pre-emergence action against ALOMY (herbicidal activity) (ALOMY [9]; [19]): 90%
- Pre-emergence action against AMARE in % (AMARE [10]; 20 g/ha, scored visually after 3 weeks vs untreated controls, 100% = plants have died, 0% = like control plants): 100%
- Pre-emergence action against AMARE in % (AMARE [10]; [19]): 100%
- Pre-emergence action against MATIN in % (MATIN [11]; dosage 80 g/ha): 100%
- Post-emergence action against ECHCG in % (ECHCG [12]; dosage 5 g/ha): 90%
- Post-emergence action against ECHCG in % (ECHCG [12]; dosage 20 g/ha): 90%
- Post-emergence action against VERPE in % (VERPE [13]): 90%
- Pre-emergence action against POLCO in % (POLCO): 80%
- Post-emergence action against MATIN in % (MATIN [14]; dosage 20 g/ha): 80%
- Pre-emergence action against ABUTH (herbicidal activity) (ABUTH [15]; [19]): 100%
- Pre-emergence action against ABUTH (herbicidal activity in percent) (ABUTH [15]; dosage 20 g/ha, scored visually after 3 weeks vs untreated controls, 100% = plants have died, 0% = like control plants): 90%
- Post-emergence action against SETVI in % (SETVI [16]; dosage 5 g/ha): 80%
- Post-emergence action against SETVI in % (SETVI [16]; dosage 20 g/ha): 90%
- Pre-emergence action against LOLRI in % (LOLRI): 100%
- Pre-emergence action against VIOTR in % (VIOTR; dosage 20 g/ha): 100%
- Pre-emergence action against VIOTR in % (VIOTR; dosage 80 g/ha): 100%

Compound: CCNC(=O)c1c(I)ccc(C(=O)Nc2nnnn2CC)c1Cl [Example 2-196]
- pest or weed control at 20 g/ha (DIGSA [1]; Digitaria sanguinalis, 504 h, 20 g/ha): 90%
- pest or weed control at 80 g/ha (AVEFA; Avena fatua, 504 h, 80 g/ha): 100%
- pest or weed control at 20 g/ha (AVEFA; Avena fatua, 504 h, 20 g/ha, scored visually after 3 weeks, 100% = plants have died, 0% = like control plants): 80%
- pest or weed control at 80 g/ha (VERPE [3]; Veronica persica, 504 h, dosage 80 g/ha): 80%
- pest or weed control at 20 g/ha (PHBPU [5]; Ipomoea purpurea, 504 h, dosage 20 g/ha): 80%
- pest or weed control at 80 g/ha (PHBPU [5]; Ipomoea purpurea, 504 h, dosage 80 g/ha): 90%
- pest or weed control at 20 g/ha (ALOMY [6]; Alopecurus myosuroides, 504 h): 90%
- pest or weed control at 20 g/ha (DIGSA [7]; Digitaria sanguinalis, 504 h, dosage 20 g/ha): 90%
- pest or weed control at 80 g/ha (DIGSA [7]; Digitaria sanguinalis, 504 h, dosage 80 g/ha): 100%
- pest or weed control at 20 g/ha (SETVI [17]; dosage 20 g/ha): 90%
- pest or weed control at 80 g/ha (SETVI [17]; dosage 80 g/ha): 100%
- pest or weed control at 80 g/ha (ALOMY [9]; Alopecurus myosuroides, 504 h, 80 g/ha, scored visually after 3 weeks vs untreated controls (100% = plants have died, 0% = like control plants)): 100%
- pest or weed control at 20 g/ha (ALOMY [9]; Alopecurus myosuroides, 504 h, 20 g/ha, scored visually after 3 weeks, 100% = plants have died, 0% = like control plants): 90%
- pest or weed control at 20 g/ha (AMARE [10]; Amaranthus retroflexus, 504 h, 20 g/ha, scored visually after 3 weeks vs untreated controls, 100% = plants have died, 0% = like control plants): 100%
- pest or weed control at 80 g/ha (AMARE [10]; Amaranthus retroflexus, 504 h, 80 g/ha, scored visually after 3 weeks vs untreated controls, 100% = plants have died, 0% = like control plants): 100%
- pest or weed control at 20 g/ha (MATIN [11]; [20]): 100%
- pest or weed control at 80 g/ha (MATIN [11]; Tripleurospermum inodorum, 504 h, dosage 80 g/ha): 100%
- pest or weed control at 20 g/ha (ABUTH [18]): 100%
- pest or weed control at 20 g/ha (ECHCG [12]; Echinochloa crus-galli, 504 h, dosage 20 g/ha): 80%
- pest or weed control at 20 g/ha (VERPE [13]; Veronica persica, 504 h): 80%
- pest or weed control at 80 g/ha (POLCO; Fallopia convolvulus, 504 h): 90%
- pest or weed control at 5 g/ha (MATIN [14]; Tripleurospermum inodorum, 504 h, dosage 5 g/ha): 80%
- pest or weed control at 20 g/ha (MATIN [14]; [20]): 90%
- pest or weed control at 80 g/ha (ABUTH [15]; Abutilon theophrasti, 504 h, 80 g/ha, scored visually after 3 weeks vs untreated controls (100% = plants have died, 0% = like control plants)): 100%
- pest or weed control at 20 g/ha (ABUTH [15]; Abutilon theophrasti, 504 h, dosage 20 g/ha, scored visually after 3 weeks vs untreated controls, 100% = plants have died, 0% = like control plants, read-out: Pre-emergence action against ABUTH (herbicidal activity in percent)): 100%
- pest or weed control at 20 g/ha (SETVI [16]; Setaria viridis, 504 h, dosage 20 g/ha): 100%
- pest or weed control at 80 g/ha (LOLRI; Lolium rigidum, 504 h): 100%
- pest or weed control at 20 g/ha (VIOTR; Viola tricolor, 504 h, dosage 20 g/ha): 90%
- pest or weed control at 80 g/ha (VIOTR; Viola tricolor, 504 h, dosage 80 g/ha): 100%
